Measurements from BigSolDB 2.1.

Nc1cnc(Cl)cn1
solubility (mole fraction)
Conditions	278.15 K	283.15 K	288.15 K	293.15 K	298.15 K	303.15 K	308.15 K	313.15 K	318.15 K	323.15 K
in ethanol	0.00222	0.00302	0.00388	0.00477	0.0058	0.00692	0.00813	0.00961	0.0111	0.0131
in ethylene glycol	0.000321	0.000398	0.000506	0.000615	0.000747	0.000868	0.00102	0.00117	0.00136	0.00157
in methanol	0.00319	0.00442	0.00573	0.0073	0.00915	0.0109	0.0127	0.0149	0.0173	0.0201
in n-propanol	0.000781	0.001	0.00126	0.00152	0.00181	0.00214	0.00252	0.00291	0.00334	0.00383
in water	3.69e-05	4.76e-05	6.03e-05	7.35e-05	8.88e-05	0.000106	0.000123	0.000141	0.000161	0.000182
